Source: US10947213B1 (Merck Patent GmbH, priority 2015, dated 2021)
Counter-ions that a name gives are not always drawn.

Each compound was assayed against T1, TLR7/NFKb HEK cells (Homo sapiens, UniProt Q9NYK1) (assay: HEK Cell Assay (TLR7/NFKb reporter, Steady-Glo luciferase readout)). Details: 30 min compound preincubation, then R*48 agonist for 5 hours, read-out: Potency.
T1 construct: expressed in transfected cells; host or cells: HEK cells (TLR7/NFKb reporter line)
T1 sequence (Q9NYK1 27-1049): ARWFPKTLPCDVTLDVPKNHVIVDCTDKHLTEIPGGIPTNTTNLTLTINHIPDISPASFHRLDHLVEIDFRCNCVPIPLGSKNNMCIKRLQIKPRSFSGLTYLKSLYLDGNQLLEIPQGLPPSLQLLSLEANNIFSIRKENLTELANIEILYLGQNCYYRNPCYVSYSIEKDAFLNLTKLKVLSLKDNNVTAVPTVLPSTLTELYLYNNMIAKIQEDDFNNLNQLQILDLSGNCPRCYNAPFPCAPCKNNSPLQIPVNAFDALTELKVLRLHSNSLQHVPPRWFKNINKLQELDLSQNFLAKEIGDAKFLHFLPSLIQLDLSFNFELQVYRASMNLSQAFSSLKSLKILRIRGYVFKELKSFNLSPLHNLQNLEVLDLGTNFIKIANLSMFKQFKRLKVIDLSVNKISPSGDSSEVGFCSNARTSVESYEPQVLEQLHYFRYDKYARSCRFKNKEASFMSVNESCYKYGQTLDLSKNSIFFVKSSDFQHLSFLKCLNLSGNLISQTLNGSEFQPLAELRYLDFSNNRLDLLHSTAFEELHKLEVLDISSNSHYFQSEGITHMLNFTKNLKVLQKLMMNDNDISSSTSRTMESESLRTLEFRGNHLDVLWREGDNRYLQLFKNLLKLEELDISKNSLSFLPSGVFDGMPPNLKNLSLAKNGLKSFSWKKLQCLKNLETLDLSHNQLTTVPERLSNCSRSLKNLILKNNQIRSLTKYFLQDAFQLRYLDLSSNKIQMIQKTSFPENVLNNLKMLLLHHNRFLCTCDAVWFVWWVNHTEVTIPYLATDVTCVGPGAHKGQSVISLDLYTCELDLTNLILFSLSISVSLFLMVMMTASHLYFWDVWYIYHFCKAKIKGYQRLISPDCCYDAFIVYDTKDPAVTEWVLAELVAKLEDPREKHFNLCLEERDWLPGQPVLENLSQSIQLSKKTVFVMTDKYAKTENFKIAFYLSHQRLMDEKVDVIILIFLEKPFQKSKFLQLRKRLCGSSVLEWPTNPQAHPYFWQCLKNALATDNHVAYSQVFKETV
Type: cell-based
How it was run: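 Steady-Glo luminescence after 5 h stimulation with R*48 agonist, following 30 min compound preincubation. Assay run in HEK cells carrying a TLR7/NFKb luciferase reporter, plated at 5000 cells/well and grown 24 h at 37° C (10% CO2) before treatment.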

| SMILES | IC50 |
| --- | --- |
| C[C@H]1C[C@@H](NC(=O)CC2CCN(C)C2)CN(c2ccc(C(F)(F)F)c3ncccc23)C1 (stereo partly drawn) [Compound 283, N-[(3R,5S)-5-methyl-1-[8-(trifluoromethyl)quinolin-5-yl]piperidin-3-yl]-2-(1-methylpyrrolidin-3-yl)acetamide hydrochloride] | < 1000 nM |
| CC(C(=O)N[C@@H]1C[C@H](C)CN(c2ccc(C(F)F)c3ncccc23)C1)N1CCC(O)CC1 (stereo partly drawn) [Compound 313, N-[(3R,5S)-1-[8-(difluoromethyl)quinolin-5-yl]-5-methylpiperidin-3-yl]-2-(4-hydroxypiperidin-1-yl)propanamide] | < 1000 nM |
| C[C@H]1C[C@@H](NC(=O)CN2CCC(F)(F)CC2)CN(c2ccc(C#N)c3nccnc23)C1 [Compound 348, N-[(3R,5S)-1-(8-cyanoquinoxalin-5-yl)-5-methylpiperidin-3-yl]-2-(4,4-difluoropiperidin-1-yl)acetamide] | < 1000 nM |
| CC(C)[C@H](O)C(=O)NC1CC(C(F)(F)F)CN(c2ccc(C#N)c3nccnc23)C1 (single isomer, unassigned) [Compound 87] | < 1000 nM |
| CC(C(=O)N[C@@H]1C[C@H](C)CN(c2ccc(C#N)c3nccnc23)C1)N1CC(N)C1 (stereo partly drawn) [Compound 267, 2-(3-aminoazetidin-1-yl)-N-[(3R,5S)-1-(8-cyanoquinoxalin-5-yl)-5-methylpiperidin-3-yl]propanamide] | < 1000 nM |
| CN1CCC(NC(=O)C2CN(c3ccc(C#N)c4ncccc34)CC(F)(F)C2)CC1 (stereo not drawn) [Compound 530, 1-(8-Cyano-quinolin-5-yl)-5,5-difluoro-piperidine-3-carboxylic acid (1-methyl-piperidin-4-yl)-amide] | < 1000 nM |
| C[C@H]1C[C@@H](NC(=O)[C@@H](N)Cc2cccnc2)CN(c2ccnc3nccnc23)C1 [Compound 118, (2S)-2-amino-N-[(3R,5S)-5-methyl-1-[pyrido[2,3-b]pyrazin-8-yl]piperidin-3-yl]-3-(pyridin-3-yl)propanamide] | 1000 to 10000 nM |
| CCN(CC)CCNCC1CCN(c2ccnc3ccc(C)cc23)CC1 [Compound 384, N,N-Diethyl-N′-[1-(6-methyl-quinolin-4-yl)-piperidin-4-ylmethyl]-ethane-1,2-diamine] | 1000 to 10000 nM |
| CCN(CC)CCNC(=O)C1CCN(c2ccnc3nccnc23)CC1 [Compound 379] | 1000 to 10000 nM |
| Cc1ncc(N2C[C@@H](C)C[C@@H](NC(=O)[C@H](N)C3CC3)C2)c2cccnc12 [Compound 561, (R)-2-Amino-2-cyclopropyl-N-[(3R,5S)-5-methyl-1-(8-methyl-[1,7]naphthyridin-5-yl)-piperidin-3-yl]-acetamide] | < 1000 nM |
| CCN(CC)CCNC(=O)N1CCN(c2ccc(C#N)c3nccnc23)CC1 [Compound 453, 4-(8-Cyano-quinoxalin-5-yl)-piperazine-1-carboxylic acid (2-diethylamino-ethyl)-amide] | < 1000 nM |
| N#Cc1ccc(N2CC(NC(=O)C(N)C(F)(F)F)CC(C3CC3)C2)c2nccnc12 (single isomer, unassigned) [Compound 177] | 1000 to 10000 nM |
| N#Cc1ccc(N2C[C@H](NC(=O)NCC3CC(F)(F)C3)C[C@H](C(F)(F)F)C2)c2cccnc12 [Compound 580, 1-[(3R,5S)-1-(8-Cyano-quinolin-5-yl)-5-trifluoromethyl-piperidin-3-yl]-3-(3,3-difluoro-cyclobutylmethyl)-urea] | 1000 to 10000 nM |
| OC1CCC(NC2CC(C(F)(F)F)CN(c3ccnc4nccnc34)C2)CC1 (single isomer, unassigned) [Compound 94, trans,cis-4-((1-(pyrido[2,3-b]pyrazin-8-yl)-5-(trifluoromethyl)piperidin-3-yl)amino)cyclohexanol] | > 10000 nM |
| C[C@@H]1CN(c2ccc(C#N)c3nccnc23)C[C@H](CN2CCC(N3CCCC3)CC2)O1 [Compound 57, 8-((2R,6S)-2-methyl-6-((4-(pyrrolidin-1-yl)piperidin-1-yl)methyl)morpholino)quinoxaline-5-carbonitrile] | < 1000 nM |
| CN[C@@H]1C[C@H](C)CN(c2ccc(C(F)(F)F)c3ncccc23)C1 [Compound 451, Methyl-[(3R,5S)-5-methyl-1-(8-trifluoromethyl-quinolin-5-yl)-piperidin-3-yl]-amine hydrochloride] | < 1000 nM |
| CN1CCC(CC(=O)NC2CN(c3ccc(C#N)c4nccnc34)CC(F)(F)C2)CC1 (racemic) [Compound 504, N-[1-(8-Cyano-quinoxalin-5-yl)-5,5-difluoro-piperidin-3-yl]-2-(1-methyl-piperidin-4-yl)-acetamide] | < 1000 nM |

| SMILES | IC50 |
| --- | --- |
| C[C@H]1C[C@@H](NC(=O)C2(N)COC2)CN(c2ccc(C#N)c3nccnc23)C1 [Compound 129, 3-amino-N-[(3R,5S)-1-(8-cyanoquinoxalin-5-yl)-5-methylpiperidin-3-yl]oxetane-3-carboxamide] | 1000 to 10000 nM |
| C[C@H]1C[C@@H](NC(=O)CC(C)(C)C)CN(c2ccnc3nccnc23)C1 [Compound 41, 3,3-dimethyl-N-((3R,5S)-5-methyl-1-(pyrido[2,3-b]pyrazin-8-yl)piperidin-3-yl)butanamide] | 1000 to 10000 nM |
| CC(=O)N[C@@H]1C[C@H](C)CN(c2ccc(C(F)(F)F)c3ncccc23)C1 [Compound 517, N-[(3R,5S)-5-Methyl-1-(8-trifluoromethyl-quinolin-5-yl)-piperidin-3-yl]-acetamide] | < 1000 nM |
| C[C@H]1C[C@@H](NC(=O)CC2CCCN(C)C2)CN(c2ccc(C(F)F)c3nccnc23)C1 (stereo partly drawn) [Compound 318, N-[(3R,5S)-1-[8-(difluoromethyl)quinoxalin-5-yl]-5-methylpiperidin-3-yl]-2-(1-methylpiperidin-3-yl)acetamide] | < 1000 nM |
| CC(C)[C@@H](O)C(=O)N[C@@H]1C[C@H](C)CN(c2ccnc3nccnc23)C1 [Compound 23, (R)-2-hydroxy-3-methyl-N-((3R,5S)-5-methyl-1-(pyrido[2,3-b]pyrazin-8-yl)piperidin-3-yl)butanamide] | > 10000 nM |
| C[C@H]1C[C@@H](NC(=O)CC2CN(C)C2)CN(c2ccc(C(F)(F)F)c3ncccc23)C1 [Compound 360, N-[(3R,5S)-5-methyl-1-[8-(trifluoromethyl)quinolin-5-yl]piperidin-3-yl]-2-(1-methylazetidin-3-yl)acetamide] | < 1000 nM |
| C[C@H]1C[C@@H](NC2CCN(C)C2=O)CN(c2ccc(C(F)(F)F)c3nccnc23)C1 (single isomer, unassigned) [Compound 353] | < 1000 nM |
| N#Cc1ccc(N2CC(N)CC(C(F)(F)F)C2)c2nccnc12 (single isomer, unassigned) [Compound 83] | < 1000 nM |
| C[C@H]1C[C@@H](NC(=O)C(C)(C)N2CCCCC2)CN(c2ccc(C(F)(F)F)c3ncccc23)C1 [Compound 572] | < 1000 nM |
| N#Cc1ccc(N2CCC(C(=O)NC3CCN(CC4CC4)C3)CC2)c2cccnc12 (stereo not drawn) [Compound 434, 1-(8-Cyano-quinolin-5-yl)-piperidine-4-carboxylic Acid (1-cyclopropylmethyl-pyrrolidin-3-yl)-amide] | < 1000 nM |
| C[C@H]1C[C@@H](NC(=O)CO)CN(c2ccnc3ccccc23)C1 [Compound 14, 2-hydroxy-N-((3R,5S)-5-methyl-1-(quinolin-4-yl)piperidin-3-yl)acetamide] | > 10000 nM |
| COc1ccc(N2C[C@@H](C)C[C@@H](N)C2)c2cccnc12 [Compound 187, (3R,5S)-1-(8-methoxyquinolin-5-yl)-5-methylpiperidin-3-amine] | < 1000 nM |
| CNC(=O)CN[C@@H]1C[C@H](C)CN(c2ccc(C(F)(F)F)c3ncccc23)C1 [Compound 569] | < 1000 nM |
| N#Cc1ccc(N2CC(N)CC(F)(F)C2)c2cccnc12 (stereo not drawn) [Compound 423, 5-(5-Amino-3,3-difluoro-piperidin-1-yl)-quinoline-8-carbonitrile hydrochloride] | < 1000 nM |
| C[C@H]1C[C@@H](NC(=O)C2(O)CC2)CN(c2ccc(C(F)(F)F)c3nccnc23)C1 [Compound 251, 1-hydroxy-N-[(3R,5S)-5-methyl-1-[8-(trifluoromethyl)quinoxalin-5-yl]piperidin-3-yl]cyclopropane-1-carboxamide] | 1000 to 10000 nM |
| CC(C)(N)CC(=O)NC1CN(c2ccc(C#N)c3nccnc23)CC(F)(F)C1 (stereo not drawn) [Compound 505, 3-Amino-N-[1-(8-cyano-quinoxalin-5-yl)-5,5-difluoro-piperidin-3-yl]-3-methyl-butyramide hydrochloride] | 1000 to 10000 nM |
